In article PMC8433221 (Scientific Reports, 2021):

Target: T1, PptAb-ACP complex (S2105A ACP) (Mycobacteroides abscessus, UniProt B1MD73)
T1 construct: gene MAB_3117c

CCNC(=N)NC(=O)Nc1c(CC)cccc1CC [compound 1, 1-[(2,6-diethylphenyl)-3-N-ethylcarbamimodoyl]urea]
X-ray crystallography, 2.5 Å, co-crystallisation: complex formed between PptAb and its cognate ACP domain in the presence of CoA
